# Results taken from patent US5430058A, “Pharmaceutical compositions comprising hydroxamate derivatives for iron removal” (Yeda Research and Development Co. Ltd., priority 1993, dated 1995).
# Entries after “also recorded” stand apart in the source; their conditions may differ.
# Legend:
# transferrin = assay: Effect on iron in transferrin; settings: after the same time of exposure
# plasma = assay: Pre-incubation of plasma with chelator, effect on parasite growth; assay type: cell-based, human; settings: 40 fold IC50, then dialysis
# Experimental: h. The effect of pre-incubation of red cells or plasma with drug on parasite growth. Red cell suspensions (5% hematocrit) in RPMI 1640 medium pH 7.4 (no plasma) were treated for 24-48 hrs with either 100 μg/ml of chelator or DMSO alone (<1% final concentration) in culture conditions. Chelator was removed by washing the cells 4 times with RPMI followed by 1 hour incubation at 37° C. Parasite growth was assayed after addition of gelatin enriched schizonts (>90%) as described above. […] The plasma was subsequently dialyzed for 24 hours against 800 ml 0.1% bovine serum albumin (BSA), and 10 mM glucose in phosphate buffered saline (PBS) pH 7.4, followed by an additional 24 hour dialysis against 400 ml of the same buffer and supplemented to the medium for parasite growth assays.
# Plasma and uninfected red cells were separately treated with relatively high concentrations of chelators (100 μg/ml) in order to evaluate whether the site of action of the lipophilic chelators was associated with components of the plasma and/or the uninfected red cell.
# ferritin = assay: Effect on iron in ferritin; set-up: species or system horse; settings: after the same time of exposure
# Experimental: Experimental testing of iron(III)-chelation properties RSF's were performed on human red blood cell lysates (normal and malaria parasitized), intact cells (4 hrs incubation times at 37° C.), free horse spleen ferritin (4-10 hrs at 37° C.) and ferritin-containing HEP-2 (human hepatoma) cells (4-10 hrs at 37° C.) using RSF1-ileu.
# [1] = tested on: mammalian cells in culture; assay: Growth/toxicity in mammalian cells in culture, general statement; assay type: cell-based
# Experimental: The possibility that the reversed siderophores might affect mammalian cells in culture was assessed in conditions identical to those used for parasites in cultures. […] Nucleic acid synthesis was measured in cultures of mouse NIH 3T3 fibroblasts and human HT29 colonic carcinoma cells in the presence of either SF1-ileu (open circles), desferrioxamine (DFO) (solid triangle) in DMSO or DMSO alone (Control) (<1% final) (open triangles) at same concentrations. Cultures at confluence were exposed to chelators for 24 hours; the first 3 hours without radiolabel and 21 hours with 6 μCi/ml of [^3 H]-hypoxanthine. Extracellular hypoxanthine was removed by several washes with PBS and the cells were treated with 5% TCA for 15 minutes at 5° C. and solubilized with hot 2.5% SDS. Samples were taken for counting of radioactivity and measurement of protein (BCA, Pierce). Data are given as dpm/μg protein and SD (duplicate samples).
# normal red cells = assay: Uptake of 59Fe-carrier complexes into normal red cells; assay type: cell-based, human; settings: iron(III) complex, normal red cells
# Experimental: k. Uptake of radioactive carrier-Fe complexes. DFO and the different SF derivatives were pre-complexed with iron by addition of concentrated stock solutions of 20 mg/ml carriers to ^59 FeCl3 (Amersham, England) in 0.5 ml of 150 mM NaCl, 10 mM Hepes at 3-5 molar excess of carrier for 1 hour at room temperature. To begin the flux, normal or parasitized red cells that had been washed 3 times in saline buffer and resuspended in the same buffer supplemented with 5% bovine serum albumin (BSA), 2.5 mM citrate, 2 mg/ml glucose were added to radioactive ^59 Fe-complexes at a final suspension of 20% hematocrit. After incubation at 37° C., 75 μl suspension was removed in duplicate aliquots for each time point, placed in plastic 15 ml test tube (Starstedt) and centrifuged 1 minute at 2,500 g. The supernatant was removed and the pellet immediately placed on ice. After all sampling was completed the pellets were washed twice in 15 ml of ice cold buffer containing 50 mM EDTA and lysed in distilled water. Radioactivity (Gamma emission, 700-1300 Kev) was counted and the cell number for each sample determined from hemoglobin absorption of the lysate at 410 nm.
# Due to the fact that RSF's have markedly greater lipophilicity than DFO, they were expected to faster penetrate and therefore more effectively chelate intracellular iron after short exposure times. Penetration of RSF's into normal and infected red cells was estimated by monitoring uptake of the RSF's-^59 Fe(III) complexes into infected and uninfected cells and compared to DFO. In order to confirm actual uptake of Fe-RSF ileun2 rather than adsorption to the outer membrane, cells were thoroughly washed and lysates were subjected to 80,000g×20 min centrifugation. More than 90% of the total counts were found in the cytosol fraction (results not shown).
# FIGS. 8a and 8b show uptake of Fe^59 -carrier complexes into normal and infected red cells. Uptake of ^59 -Fe-RSF (FIG. 8a) and ^59 Fe-DFO (FIG. 8b) into normal (open symbols) and infected (closed symbols) red cells (60% parasitemia, >90% trophozoites). The carriers were pre-complexed to ^59 FeCl3 at 4:1 ration in DMSO with 5 μM external FeCl3 (from methanolic stock solutions). The radioactive complexes were then added to 20% hematocrit cell suspensions and flux was measured. Specific activity was 485000 cpm/nmole and 369000 cpm/nmole for the RSF and DFO uptake experiments, respectively. Cell number was determined from hemoglobin absorption of lysate at 410 nm.
structure (smiles),measurement,setting,value
CC[C@H](C)[C@H](NC(=O)CCOCC(CC)(COCCC(=O)N[C@H](C(=O)N(C)O)[C@@H](C)CC)COCCC(=O)N[C@H](C(=O)N(C)O)[C@@H](C)CC)C(=O)N(C)O [SF1-ileu],Effect on iron in transferrin,transferrin,not substantially affecting
same,Ability of plasma to support parasite growth after pre-treatment,plasma,no significant effect
same,Effect on iron in ferritin,ferritin,not substantially affecting iron in ferritin
same,Growth of / toxicity to mammalian cells in culture,[1],does not affect the growth of various types of mammalian cells in culture; also recorded: not toxic to mammalian cells in culture
same,Time to maximum uptake,normal red cells,10 to 15 min
same,Maximum uptake level,normal red cells; 5 μM external Fe,4 nmoles/10^10 cells
same,Uptake t1/2,normal red cells; 5 μM external Fe,2 to 3 min
